Test results as given in ChEMBL document CHEMBL5257100, “Discovery and development of benzene sulfonamide derivatives as anti-hepatic fibrosis agents” (Bioorg Med Chem Lett, 2023).
Calls of active or inactive are those of the source.

Key:
LX-2 [1] = test: Anti-hepatic fibrosis activity in human LX2 cells assessed as inhibition of TGF-beta1 induced intrinsic TGF-beta1 mRNA expression at 3 micromol/L incubated for 24 hrs by qPCR analysis; type: functional, cell-based; conditions: dose 3.0 µmol/L
LX-2 [2] = test: Anti-hepatic fibrosis activity in human LX2 cells assessed as inhibition of TGFbeta1-induced COL1A1 protein expression at 1 uM incubated for 24 hrs by western blot analysis; type: functional, cell-based
[3] = Inhibition of JAK1/STAT1/STAT3 signaling pathway in human LX2 cells assessed as decrease in TGF-beta induced STAT3 phosphorylation level at 1 uM incubated for 24 hrs by Western blot analysis; type: cell-based
[4] = Inhibition of JAK1/STAT1/STAT3 signaling pathway in human LX2 cells assessed as decrease in TGF-beta induced STAT1 phosphorylation level at 1 uM incubated for 24 hrs by Western blot analysis; type: cell-based
AML12 = test: Cytotoxicity against mouse AML12 cells assessed as mortality rate at 1 to 30 uM incubated for 24 hrs by Sulfonyl Rhodamine B assay; type: toxicity, cell-based; conditions: aml12, 24 h, dose 1-30 µM
LX-2 [5] = test: Anti-hepatic fibrosis activity in human LX2 cells assessed as inhibition of TGFbeta1-induced TIMP-1 protein expression at 1 uM incubated for 24 hrs by western blot analysis; type: functional, cell-based
LX-2 [6] = test: Anti-hepatic fibrosis activity in human LX2 cells assessed as inhibition of TGFbeta1-induced FN protein expression at 3 uM incubated for 24 hrs by western blot analysis; type: functional, cell-based
LX-2 [7] = test: Anti-hepatic fibrosis activity in human LX2 cells assessed as inhibition of TGFbeta1-induced FN protein expression at 1 uM incubated for 24 hrs by western blot analysis; type: functional, cell-based
[8] = Cytotoxicity against human LX2 cells assessed as mortality rate at 1 to 30 uM incubated for 24 hrs by Sulfonyl Rhodamine B assay; type: toxicity, cell-based; conditions: lx-2, 24 h, dose 1-30 µM
LX-2 [9] = test: Anti-hepatic fibrosis activity in human LX2 cells assessed as inhibition of TGFbeta1-induced TIMP-1 protein expression at 3 uM incubated for 24 hrs by western blot analysis; type: functional, cell-based
LX-2 [10] = test: Anti-hepatic fibrosis activity in human LX2 cells assessed as inhibition of TGF-beta1 induced COL1A1 mRNA expression at 3 micromol/L incubated for 24 hrs by qPCR analysis; type: functional, cell-based; conditions: dose 3.0 µmol/L
[11] = Inhibition of JAK1/STAT1/STAT3 signaling pathway in human LX2 cells assessed as decrease in TGF-beta induced JAK1 phosphorylation level at 1 uM incubated for 24 hrs by Western blot analysis; type: cell-based
[12] = Anti-hepatic fibrosis activity in human LX2 cells assessed as inhibition of COL1A1 promoter activity at 25 micromol/L by luciferase reporter assay relative to control; type: functional; conditions: LX-2, dose 25 µmol/L
LX-2 [13] = test: Anti-hepatic fibrosis activity in human LX2 cells assessed as inhibition of TGFbeta1-induced alpha-SMA protein expression at 1 uM incubated for 24 hrs by western blot analysis; type: functional, cell-based
LX-2 [14] = test: Anti-hepatic fibrosis activity in human LX2 cells assessed as inhibition of TGFbeta1-induced alpha-SMA protein expression at 3 uM incubated for 24 hrs by western blot analysis; type: functional, cell-based
LX-2 [15] = test: Anti-hepatic fibrosis activity in human LX2 cells assessed as inhibition of TGFbeta1-induced COL1A1 protein expression at 3 uM incubated for 24 hrs by western blot analysis; type: functional, cell-based
LX-2 [16] = test: Anti-hepatic fibrosis activity in human LX2 cells assessed as inhibition of TGF-beta1 induced MMP-2 mRNA expression at 3 micromol/L incubated for 24 hrs by qPCR analysis; type: functional, cell-based; conditions: dose 3.0 µmol/L

O=C(Nc1ccccc1NS(=O)(=O)c1cccc([N+](=O)[O-])c1)c1cc(Cl)c(Cl)c(Cl)c1
Toxic: Activity [8]
active: inhibition (LX-2 [1]) | inhibition (LX-2 [2]) | inhibition [3] | inhibition [4] | inhibition (LX-2 [5]) | inhibition (LX-2 [6]) | inhibition (LX-2 [7]) | inhibition (LX-2 [9]) | inhibition (LX-2 [10]) | inhibition [11] | inhibition (LX-2 [13]) | inhibition (LX-2 [14]) | inhibition (LX-2 [15]) | inhibition (LX-2 [16])
Non-Toxic: Activity (AML12)
61.7%: inhibition at 25 µM [12]

O=C(Nc1ccccc1NS(=O)(=O)c1ccc([N+](=O)[O-])cc1)c1cc(Cl)c(Cl)c(Cl)c1
54.8%: inhibition at 25 µM [12]
active: inhibition (LX-2 [1]) | inhibition (LX-2 [2]) | inhibition [3] | inhibition [4] | inhibition (LX-2 [5]) | inhibition (LX-2 [6]) | inhibition (LX-2 [7]) | inhibition (LX-2 [9]) | inhibition (LX-2 [10]) | inhibition [11] | inhibition (LX-2 [13]) | inhibition (LX-2 [14]) | inhibition (LX-2 [15]) | inhibition (LX-2 [16])
Non-Toxic: Activity (AML12) | Activity [8]
